# Columns and labels:
# Assay type in all cases: in vivo
# Conditions in all cases: 312 h, rate 250 g/ha, evaluated after 13 days, 100=total damage to plant, 0=no damage to plant
# [1] = tested on: Lolium perenne (LOLPE); experiment: Pre-emergence herbicidal activity, glasshouse pot test
# Outline: (§1)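 Scored 0–100 (no damage to total damage) 13 days after treatment. Spray was applied 1 day post-sowing, formulated in acetone/water 50:50 plus 0.5% Tween 20, diluted in water. Glasshouse conditions: 24/16 °C, 14 h light, 65% humidity, watered twice daily.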
# [2] = tested on: Avena fatua (AVEFA); experiment: as above
# Outline: as §1
# [3] = tested on: Echinochloa crus-galli (ECHCG); experiment: as above
# Outline: as §1
# [4] = tested on: Alopecurus myosuroides (ALOMY); experiment: as above
# Outline: as §1
# [5] = tested on: Lolium perenne (LOLPE); experiment: Post-emergence herbicidal activity, glasshouse pot test
# Outline: (§2)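 Plants grown from seed in standard soil were sprayed 8 days after sowing with the active ingredient formulated in acetone/water (50:50) containing 0.5% Tween 20. Glasshouse conditions were 24/16 °C day/night, 14 h light, 65% humidity, with watering twice daily. Damage was scored 13 days later (0 = none, 100 = total).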
# [6] = tested on: Avena fatua (AVEFA); experiment: as above
# Outline: as §2
# [7] = tested on: Echinochloa crus-galli (ECHCG); experiment: as above
# Outline: as §2
# [8] = tested on: Alopecurus myosuroides (ALOMY); experiment: as above
# Outline: as §2
smiles,measurement,setting,value
CCc1ccc(Oc2ccc(Br)cc2C)cc1C1=C(O)[C@H]2[C@@H](C1=O)[C@@H]1CC[C@H]2O1 [Compound A-3],pest or weed control at 250 g/ha,[1],70%
same,pest or weed control at 250 g/ha,[2],30%
same,pest or weed control at 250 g/ha,[3],90%
same,pest or weed control at 250 g/ha,[4],60%
same,pest or weed control at 250 g/ha,[5],70%
same,pest or weed control at 250 g/ha,[6],90%
same,pest or weed control at 250 g/ha,[7],100%
same,pest or weed control at 250 g/ha,[8],90%
CCc1ccc(Oc2ccc(Cl)c(F)c2)cc1C1=C(O)C2C(C1=O)[C@H]1CC[C@@H]2CC1 (stereo partly shown) [Compound A-33],pest or weed control at 250 g/ha,[1],50%
same,pest or weed control at 250 g/ha,[2],0%
same,pest or weed control at 250 g/ha,[3],50%
same,pest or weed control at 250 g/ha,[4],20%
same,pest or weed control at 250 g/ha,[5],0%
same,pest or weed control at 250 g/ha,[6],90%
same,pest or weed control at 250 g/ha,[7],100%
same,pest or weed control at 250 g/ha,[8],90%
CCc1ccc(Oc2ccc(Br)cc2Cl)cc1C1=C(O)C2C(C1=O)[C@H]1CC[C@@H]2CC1 (stereo partly shown) [Compound A-28],pest or weed control at 250 g/ha,[1],0%
same,pest or weed control at 250 g/ha,[2],0%
same,pest or weed control at 250 g/ha,[3],20%
same,pest or weed control at 250 g/ha,[4],0%
same,pest or weed control at 250 g/ha,[5],0%
same,pest or weed control at 250 g/ha,[6],0%
same,pest or weed control at 250 g/ha,[7],80%
same,pest or weed control at 250 g/ha,[8],0%
CCc1ccc(Oc2ccc(Br)cc2F)cc1C1=C(O)C2C(C1=O)[C@H]1CC[C@@H]2CC1 (stereo partly shown) [Compound A-34],pest or weed control at 250 g/ha,[1],50%
same,pest or weed control at 250 g/ha,[2],30%
same,pest or weed control at 250 g/ha,[3],70%
same,pest or weed control at 250 g/ha,[4],20%
same,pest or weed control at 250 g/ha,[5],40%
same,pest or weed control at 250 g/ha,[6],90%
same,pest or weed control at 250 g/ha,[7],90%
same,pest or weed control at 250 g/ha,[8],80%
CCc1ccc(Oc2ccc(Cl)cc2)cc1C1=C(O)[C@H]2[C@H]3CC[C@H](C3)[C@H]2C1=O [Compound A-24],pest or weed control at 250 g/ha,[1],40%
same,pest or weed control at 250 g/ha,[2],30%
same,pest or weed control at 250 g/ha,[3],50%
same,pest or weed control at 250 g/ha,[4],10%
same,pest or weed control at 250 g/ha,[5],60%
same,pest or weed control at 250 g/ha,[6],70%
same,pest or weed control at 250 g/ha,[7],100%
same,pest or weed control at 250 g/ha,[8],60%
CCc1ccc(Oc2ccc(Br)cc2F)cc1C1=C(O)[C@H]2[C@@H](C1=O)[C@@H]1CC[C@H]2O1 [Compound A-2],pest or weed control at 250 g/ha,[1],60%
same,pest or weed control at 250 g/ha,[2],30%
same,pest or weed control at 250 g/ha,[3],60%
same,pest or weed control at 250 g/ha,[4],60%
same,pest or weed control at 250 g/ha,[5],100%
same,pest or weed control at 250 g/ha,[6],100%
same,pest or weed control at 250 g/ha,[7],100%
same,pest or weed control at 250 g/ha,[8],100%
CCc1ccc(Oc2ccc(Cl)cc2Cl)cc1C1=C(O)[C@H]2[C@H]3CC[C@H](C3)[C@H]2C1=O [Compound A-21],pest or weed control at 250 g/ha,[1],30%
same,pest or weed control at 250 g/ha,[2],0%
same,pest or weed control at 250 g/ha,[3],40%
same,pest or weed control at 250 g/ha,[4],20%
same,pest or weed control at 250 g/ha,[5],20%
same,pest or weed control at 250 g/ha,[6],0%
same,pest or weed control at 250 g/ha,[7],70%
same,pest or weed control at 250 g/ha,[8],40%
CCc1ccc(Oc2ccc(F)c(Cl)c2)cc1C1=C(O)[C@H]2[C@@H](C1=O)[C@@H]1CC[C@H]2O1 [Compound A-49],pest or weed control at 250 g/ha,[1],100%
same,pest or weed control at 250 g/ha,[2],90%
same,pest or weed control at 250 g/ha,[3],100%
same,pest or weed control at 250 g/ha,[4],90%
same,pest or weed control at 250 g/ha,[5],100%
same,pest or weed control at 250 g/ha,[6],90%
same,pest or weed control at 250 g/ha,[7],100%
same,pest or weed control at 250 g/ha,[8],90%
CCc1ccc(Oc2ncc(Br)cn2)cc1C1=C(O)CCC1=O [Compound A-72],pest or weed control at 250 g/ha,[1],70%
same,pest or weed control at 250 g/ha,[2],30%
same,pest or weed control at 250 g/ha,[3],100%
same,pest or weed control at 250 g/ha,[4],40%
same,pest or weed control at 250 g/ha,[5],30%
same,pest or weed control at 250 g/ha,[6],30%
same,pest or weed control at 250 g/ha,[7],100%
same,pest or weed control at 250 g/ha,[8],50%
CCc1ccc(Oc2ncc(C(F)(F)F)cc2Cl)cc1C1=C(O)C2C(C1=O)[C@H]1CC[C@@H]2CC1 (stereo partly shown) [Compound A-88],pest or weed control at 250 g/ha,[1],100%
same,pest or weed control at 250 g/ha,[2],40%
same,pest or weed control at 250 g/ha,[3],100%
same,pest or weed control at 250 g/ha,[4],90%
same,pest or weed control at 250 g/ha,[5],90%
same,pest or weed control at 250 g/ha,[6],100%
same,pest or weed control at 250 g/ha,[7],100%
same,pest or weed control at 250 g/ha,[8],90%
CCc1ccc(Oc2cnc3ccc(Br)cc3n2)cc1C1=C(O)CCC1=O [Compound A-79],pest or weed control at 250 g/ha,[1],70%
same,pest or weed control at 250 g/ha,[2],20%
same,pest or weed control at 250 g/ha,[3],90%
same,pest or weed control at 250 g/ha,[4],40%
same,pest or weed control at 250 g/ha,[5],20%
same,pest or weed control at 250 g/ha,[6],0%
same,pest or weed control at 250 g/ha,[7],50%
same,pest or weed control at 250 g/ha,[8],0%
"O=C1CCC(O)=C1c1cc(Oc2ccc(Cl)cc2)ccc1OC(F)(F)F [Compound A-52, 2-[5-(4-chlorophenoxy)-2-trifluoromethoxyphenyl]cyclopentane-1,3-dione]",pest or weed control at 250 g/ha,[1],0%
same,pest or weed control at 250 g/ha,[2],0%
same,pest or weed control at 250 g/ha,[3],0%
same,pest or weed control at 250 g/ha,[4],0%
same,pest or weed control at 250 g/ha,[5],0%
same,pest or weed control at 250 g/ha,[6],0%
same,pest or weed control at 250 g/ha,[7],50%
same,pest or weed control at 250 g/ha,[8],0%
CCc1ccc(Oc2nc3ccc(OC)cc3s2)cc1C1=C(O)CCC1=O [Compound A-75],pest or weed control at 250 g/ha,[1],80%
same,pest or weed control at 250 g/ha,[2],20%
same,pest or weed control at 250 g/ha,[3],100%
same,pest or weed control at 250 g/ha,[4],30%
same,pest or weed control at 250 g/ha,[5],20%
same,pest or weed control at 250 g/ha,[6],0%
same,pest or weed control at 250 g/ha,[7],40%
same,pest or weed control at 250 g/ha,[8],10%
CCc1ccc(Oc2ccc(Br)cc2Cl)cc1C1=C(O)[C@H]2[C@@H](C1=O)[C@@H]1CC[C@H]2O1 [Compound A-9],pest or weed control at 250 g/ha,[1],100%
same,pest or weed control at 250 g/ha,[2],90%
same,pest or weed control at 250 g/ha,[3],70%
same,pest or weed control at 250 g/ha,[4],80%
same,pest or weed control at 250 g/ha,[5],70%
same,pest or weed control at 250 g/ha,[6],100%
same,pest or weed control at 250 g/ha,[7],90%
same,pest or weed control at 250 g/ha,[8],90%

# From patent US8895474B2, “Herbicidally active cyclopentanediones and derivatives thereof, and their use in controlling weeds” (Syngenta Limited, priority 2009, dated 2014)
